In patent publication US20250025411A1, “READILY SOLUBLE AND THERMOSTABLE GLUCAGON FORMULATIONS AND DELIVERY FOR MINI-DOSING AND CLOSED -LOOP PROPHYLACTIC TREATMENT OF HYPOGLYCEMIA” (Massachusetts Institute of Technology, priority 2023, published 2025):

How the values were obtained:
[1] = Dissolution kinetics of solid glucagon tablets; assay type: physicochemical; conditions: pH 7.4 PBS, 37° C.
Text: Many of the top hits in the excipient screening (e.g., benzoic acid and sodium carbonate) promote glucagon dissolution by altering solution pH. Unlike many other successful excipients, the zwitterionic compound MSB can enhance glucagon dissolution in PBS without altering solution pH.
The excipients were cryo-milled and sieved to a particle size of 63-120 μm (230-120 mesh) before being combined with lyophilized glucagon powder. Solid glucagon formulations were manufactured by tablet compaction of the drug-excipient mixture (1 mm diameter die, 400 N compaction force) using an RD10A Natoli Tablet press. Magnesium stearate, a common lubricant used in tableting, was excluded from this process. The solid formulations were stored at 4° C. until use.
The dissolution kinetics of the solid formulations were assessed by incubating the solid glucagon formulations in 2 mL of pH 7.4 PBS, stored at 37° C. on an orbital shaker. At predetermined timepoints, 200 μL of supernatant was removed for HPLC analysis and an equivalent volume of release medium was replaced. The samples were diluted with equal parts of acetonitrile and analyzed using RP-HPLC.

[2] = High throughput screening of water-soluble solid excipients for glucagon dissolution; assay type: physicochemical; conditions: for Fold change vs. PBS Avg.: 30-minute incubation in pH 7.4 PBS containing 1 mg/mL excipient; for Fold change vs. PBS Avg. / Glucagon concentration Avg.: 37° C.; for Glucagon concentration Avg.: solubilized glucagon after 30-minute incubation of lyophilized glucagon in pH 7.4 PBS containing 1 mg/mL excipient; for enhancement of glucagon dissolution (statistical significance compared to no excipient): 30-minute incubation in pH 7.4 PBS at 37° C.

Fold change vs. PBS Avg. [2] [fold] | Glucagon concentration Avg. [2] [mg/mL] | Compound | dissolution of solid glucagon formulation in neutral pH buffer [1] | enhancement of glucagon dissolution (statistical significance compared to no excipient) [2]
– | – | glucagon [unformulated glucagon] | remained largely insoluble | –
0.35 | 0.08 | O=C(O)CC(O)C(=O)O (centres unmarked) [Malic Acid] | – | –
4.37 | 0.94 | CCCCCCCCCCCCOP(=O)([O-])OCC[N+](C)(C)C [Dodecylphosphocholine] | – | successfully enhanced the dissolution of glucagon
2.50 | 0.54 | NC(CO)(CO)CO [Tris base] | – | –
1.66 | 0.36 | N[C@@H](Cc1ccccc1)C(=O)O [L-Phenylalanine] | – | –
1.15 | 0.25 | O=S(=O)(O)CCN1CCN(CCO)CC1 [HEPES] | – | –
3.70 | 0.80 | O=S(=O)(O)CCN1CCN(CCS(=O)(=O)O)CC1 [Piperazine-N,N′-bis(2-ethanesulfonic acid)] | – | successfully enhanced the dissolution of glucagon
1.16 | 0.25 | OC[C@@H](O)[C@@H](O)[C@H](O)[C@@H](O)CO [D-Sorbitol] | – | –
1.28 | 0.28 | O=S(=O)(O)CC(O)CN(CCO)CCO (centres unmarked) [DIPSO] | – | –
1.34 | 0.29 | NCCC(=O)O [Beta-Alanine] | – | –
0.52 | 0.11 | CCCCCCCCCCCC[N+](C)(C)CCCS(=O)(=O)O [Lauryl sulfobetaine] | – | –
1.15 | 0.25 | CCCCCCCC[N+](C)(C)CCCS(=O)(=O)[O-] [Octyl sulfobetaine] | – | –

Compound | Fold change vs. PBS Avg. [2] [fold] | Glucagon concentration Avg. [2] [mg/mL] | dissolution of solid glucagon formulation in neutral pH buffer [1] | enhancement of glucagon dissolution (statistical significance compared to no excipient) [2]
O.O=C[C@H](O)[C@@H](O)[C@H](O)[C@H](O)CO [Dextrose Monohydrate] | 1.09 | 0.24 | – | –
N[C@@H](Cc1c[nH]c2ccccc12)C(=O)O [L-Tryptophan] | 1.54 | 0.33 | – | –
